Source: publication PMC11470957, “Principles of paralog-specific targeted protein degradation engaging the C-degron E3 KLHDC2” (Nature Communications, 2024)
Where “and” joins values, the source holds several entries; their conditions need not be identical. Equal values may be shown once.

Experiments:
KLHDC2^SBD [1] = target: T1, KLHDC2^SBD (Homo sapiens, UniProt Q9Y2U9); assay: Surface plasmon resonance binding to KLHDC2; parameters: KLHDC2^SBD (15-361) and its Avi-tagged counterpart were expressed in E. coli Rosetta2 cells; 6XHis-MBP (N, cleaved yes); made in house; host or cells: E. coli Rosetta2; settings: for SPR Response: FigS3d
T1 sequence (Q9Y2U9 15-361): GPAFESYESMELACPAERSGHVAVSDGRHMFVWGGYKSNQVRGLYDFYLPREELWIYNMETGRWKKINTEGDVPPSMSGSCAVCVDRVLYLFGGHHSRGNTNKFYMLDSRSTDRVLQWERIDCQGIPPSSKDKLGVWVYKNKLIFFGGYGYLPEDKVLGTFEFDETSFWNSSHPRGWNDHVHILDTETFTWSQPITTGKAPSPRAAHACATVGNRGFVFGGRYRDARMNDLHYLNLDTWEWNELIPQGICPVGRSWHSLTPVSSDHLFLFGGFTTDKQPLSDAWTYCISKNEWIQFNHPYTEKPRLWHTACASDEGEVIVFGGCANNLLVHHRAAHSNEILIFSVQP
Description: Surface plasmon resonance (SPR) was utilized to determine kinetic parameters and binding affinity of KLHDC2 substrates using a PioneerFE (Sartorius). Experiments were carried out in 20 mM Tris, 200 mM NaCl, 1 mM TCEP, 0.01% Brij35, and 1% DMSO at pH 7.4 as a running buffer with a 100 µL/min flow rate at 20 °C.
The 10xHis-KLHDC2 was immobilized onto a Ni-NTA-coated biosensor chip (HisCap). The chip surface was conditioned using 10 mM HCl, 50 mM NaOH, and 0.1% SDS (50 µL at 100 µL/min) twice, followed by a 100 mM Tris buffer wash (100 µL at 100 µL/min). The surface was then activated using an injection of 0.5 M EDTA (125 µL at 25 µL/min) followed by an injection of 5 mM NiCl2 (125 µL at 25 µL/min). […] Channel 2 was treated identically to channel 3 except for protein loading to be used as a reference channel. […] 100% of the loop was injected with a 300 s dissociation time. All samples were run in triplicate. Data was analyzed using Qdat software and fit to a simple 1-site model.
The SPR experiments were performed to determine the binding affinities (KD) of KLHDC2-SJ46411 and KLHDC2-SJ46418 complexes. All the experiments were performed using a Biacore 1S+ instrument. […] The running buffer consisted of 20 mM Tris pH 7.5, 200 mM NaCl, 1 mM TCEP, 0.01% Brij35, and 4% DMSO. […] In brief, before the immobilization, the sensor chip surface was conditioned by injecting a mixture of (3:1 v/v) 8 M guanidine hydrochloride and 1 M NaOH at a flow rate of 5 μL/min for 2 min for two times. Then, running buffer was injected at a 30 μl/min flow rate for 1 min 3 times. Next, the Biotin CAPture reagent was injected at a flow rate of 2 μl/min for 5 min. Then, biotinylated KLHDC2 was only injected onto the active channel (channel 2).
Sample preparation was carried out precisely the same as SJ46411. All experiments were performed using a multi-cycle analysis method with a 30 μl/min flow rate, 120 S association, and 240 s dissociation time. All data were reference subtracted and corrected for DMSO mismatch. The sensorgrams were analyzed using Biacore insight evaluation software, and KD was determined using the 1:1 steady-state affinity fitting. Finally, all the analyzed data was replotted using GraphPad Prizm 10 software.

KLHDC2^SBD [2] = target: T1, KLHDC2^SBD; assay: TR-FRET assay, competition with di-Gly degron peptide binding to KLHDC2^SBD; parameters: KLHDC2^SBD (15-361) and its Avi-tagged counterpart were expressed in E. coli Rosetta2 cells; 6XHis-MBP (N, cleaved yes); made in house; host or cells: E. coli Rosetta2
Procedure, shortened: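 Compounds displaced AlexaFluor488-RIC8B peptide (20 nM) from biotin-KLHDC2 SBD (50 nM) bound to Tb-streptavidin (2.5 nM). The 520/490 ratio (337 nm excitation) was normalized to buffer-only (100%) and curve-fitted.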

Compound: COCCOc1cccc2ccc(-c3nc(CC(=O)NCC(=O)O)cs3)cc12 [SJ46418]
- Raw SPR response (KLHDC2^SBD [1]; 0.0976562 uM, time -29 s): 0.0989
- Raw SPR response (KLHDC2^SBD [1]; 0.0976562 uM, time -29.1 s): 0.1275
- Raw SPR response (KLHDC2^SBD [1]; 0.0976562 uM, time -29.2 s): 0.1501
- Raw SPR response (KLHDC2^SBD [1]; 0.0976562 uM, time -29.3 s): 0.2497
- Raw SPR response (KLHDC2^SBD [1]; 0.195312 uM, time -29 s): 0.0952
- Raw SPR response (KLHDC2^SBD [1]; 0.195312 uM, time -29.1 s): 0.1196
- Raw SPR response (KLHDC2^SBD [1]; 0.195312 uM, time -29.2 s): 0.1572
- Raw SPR response (KLHDC2^SBD [1]; 0.195312 uM, time -29.3 s): 0.2514
- Raw SPR response (KLHDC2^SBD [1]; 0.390625 uM, time -29 s): 0.1406
- Raw SPR response (KLHDC2^SBD [1]; 0.390625 uM, time -29.1 s): 0.1812
- Raw SPR response (KLHDC2^SBD [1]; 0.390625 uM, time -29.2 s): 0.2616
- Raw SPR response (KLHDC2^SBD [1]; 0.390625 uM, time -29.3 s): 0.3693
- Raw SPR response (KLHDC2^SBD [1]; 0.78125 uM, time -29 s): 0.1584
- Raw SPR response (KLHDC2^SBD [1]; 0.78125 uM, time -29.1 s): 0.1946
- Raw SPR response (KLHDC2^SBD [1]; 0.78125 uM, time -29.2 s): 0.2669
- Raw SPR response (KLHDC2^SBD [1]; 0.78125 uM, time -29.3 s): 0.3893
- Raw SPR response (KLHDC2^SBD [1]; 1.5625 uM, time -29 s): 0.1505
- Raw SPR response (KLHDC2^SBD [1]; 1.5625 uM, time -29.1 s): 0.1878
- Raw SPR response (KLHDC2^SBD [1]; 1.5625 uM, time -29.2 s): 0.2713
- Raw SPR response (KLHDC2^SBD [1]; 1.5625 uM, time -29.3 s): 0.3827
- Raw SPR response (KLHDC2^SBD [1]; 2.34375 uM, time -29 s): 0.1726
- Raw SPR response (KLHDC2^SBD [1]; 2.34375 uM, time -29.1 s): 0.2365
- Raw SPR response (KLHDC2^SBD [1]; 2.34375 uM, time -29.2 s): 0.3258
- Raw SPR response (KLHDC2^SBD [1]; 2.34375 uM, time -29.3 s): 0.5246
- Raw SPR response (KLHDC2^SBD [1]; 3.125 uM, time -29 s): 0.1584
- Raw SPR response (KLHDC2^SBD [1]; 3.125 uM, time -29.1 s): 0.2098
- Raw SPR response (KLHDC2^SBD [1]; 3.125 uM, time -29.2 s): 0.2855
- Raw SPR response (KLHDC2^SBD [1]; 3.125 uM, time -29.3 s): 0.3398
- Raw SPR response (KLHDC2^SBD [1]; 4.6875 uM, time -29 s): 0.1506
- Raw SPR response (KLHDC2^SBD [1]; 4.6875 uM, time -29.1 s): 0.2195
- Raw SPR response (KLHDC2^SBD [1]; 4.6875 uM, time -29.2 s): 0.3095
- Raw SPR response (KLHDC2^SBD [1]; 4.6875 uM, time -29.3 s): 0.4038
- Raw SPR response (KLHDC2^SBD [1]; 12.5 uM, time -29 s): 0.1017
- Raw SPR response (KLHDC2^SBD [1]; 12.5 uM, time -29.1 s): 0.1107
- Raw SPR response (KLHDC2^SBD [1]; 12.5 uM, time -29.2 s): 0.1281
- Raw SPR response (KLHDC2^SBD [1]; 12.5 uM, time -29.3 s): 0.1417
- Raw SPR data, fit (KLHDC2^SBD [1]; 0.09765625 Fit, time -29 s): -0.002337
- Raw SPR data, fit (KLHDC2^SBD [1]; 0.09765625 Fit, time -29.1 s): -0.002345
- Raw SPR data, fit (KLHDC2^SBD [1]; 0.09765625 Fit, time -29.2 s): -0.002354
- Raw SPR data, fit (KLHDC2^SBD [1]; 0.09765625 Fit, time -29.3 s): -0.002362
- Raw SPR data, fit (KLHDC2^SBD [1]; 0.1953125Fit uM, time -29 s): 0.003849
- Raw SPR data, fit (KLHDC2^SBD [1]; 0.1953125Fit uM, time -29.1 s): 0.003863
- Raw SPR data, fit (KLHDC2^SBD [1]; 0.1953125Fit uM, time -29.2 s): 0.003876
- Raw SPR data, fit (KLHDC2^SBD [1]; 0.1953125Fit uM, time -29.3 s): 0.003889
- Raw SPR data, fit (KLHDC2^SBD [1]; 0.390625fit, time -29 s): 0.007264
- Raw SPR data, fit (KLHDC2^SBD [1]; 0.390625fit, time -29.1 s): 0.007289
- Raw SPR data, fit (KLHDC2^SBD [1]; 0.390625fit, time -29.2 s): 0.007315
- Raw SPR data, fit (KLHDC2^SBD [1]; 0.390625fit, time -29.3 s): 0.00734
- Raw SPR data, fit (KLHDC2^SBD [1]; 0.78125 fit, time -29 s): 0.01901
- Raw SPR data, fit (KLHDC2^SBD [1]; 0.78125 fit, time -29.1 s): 0.01908
- Raw SPR data, fit (KLHDC2^SBD [1]; 0.78125 fit, time -29.2 s): 0.01915
- Raw SPR data, fit (KLHDC2^SBD [1]; 0.78125 fit, time -29.3 s): 0.01921
- Raw SPR data, fit (KLHDC2^SBD [1]; 1.5625 fit, time -29 s): 0.01693
- Raw SPR data, fit (KLHDC2^SBD [1]; 1.5625 fit, time -29.1 s): 0.01699
- Raw SPR data, fit (KLHDC2^SBD [1]; 1.5625 fit, time -29.2 s): 0.01704
- Raw SPR data, fit (KLHDC2^SBD [1]; 1.5625 fit, time -29.3 s): 0.0171
- Raw SPR data, fit (KLHDC2^SBD [1]; 2.34375fit, time -29 s): 0.02325
- Raw SPR data, fit (KLHDC2^SBD [1]; 2.34375fit, time -29.1 s): 0.02333
- Raw SPR data, fit (KLHDC2^SBD [1]; 2.34375fit, time -29.2 s): 0.02341
- Raw SPR data, fit (KLHDC2^SBD [1]; 2.34375fit, time -29.3 s): 0.0235
- Raw SPR data, fit (KLHDC2^SBD [1]; 3.125 fit, time -29 s): 0.02052
- Raw SPR data, fit (KLHDC2^SBD [1]; 3.125 fit, time -29.1 s): 0.02059
- Raw SPR data, fit (KLHDC2^SBD [1]; 3.125 fit, time -29.2 s): 0.02066
- Raw SPR data, fit (KLHDC2^SBD [1]; 3.125 fit, time -29.3 s): 0.02074
- Raw SPR data, fit (KLHDC2^SBD [1]; 4.6875 fit, time -29 s): 0.02316
- Raw SPR data, fit (KLHDC2^SBD [1]; 4.6875 fit, time -29.1 s): 0.02324
- Raw SPR data, fit (KLHDC2^SBD [1]; 4.6875 fit, time -29.2 s): 0.02332
- Raw SPR data, fit (KLHDC2^SBD [1]; 4.6875 fit, time -29.3 s): 0.0234
- Raw SPR data, fit (KLHDC2^SBD [1]; 12.5 fit, time -29 s): 0.01922
- Raw SPR data, fit (KLHDC2^SBD [1]; 12.5 fit, time -29.1 s): 0.01929
- Raw SPR data, fit (KLHDC2^SBD [1]; 12.5 fit, time -29.2 s): 0.01935
- Raw SPR data, fit (KLHDC2^SBD [1]; 12.5 fit, time -29.3 s): 0.01942
- SPR Response (KLHDC2^SBD [1]; analyte 0.0977 μM): 0.48 RU
- SPR Response (KLHDC2^SBD [1]; analyte 0.195 μM): 0.7348 RU
- SPR Response (KLHDC2^SBD [1]; analyte 0.391 μM): 1.4491 RU
- SPR Response (KLHDC2^SBD [1]; analyte 0.781 μM): 2.3401 RU
- SPR Response (KLHDC2^SBD [1]; analyte 1.56 μM): 3.3797 RU
- SPR Response (KLHDC2^SBD [1]; analyte 2.34 μM): 3.8756 RU
- SPR Response (KLHDC2^SBD [1]; analyte 4.69 μM): 4.4852 RU
- SPR Response (KLHDC2^SBD [1]; analyte 12.5 μM): 5.3052 RU
- SPR Rmax (KLHDC2^SBD [1]; n=1): 5.70 +/- 0.20
- Kd (KLHDC2^SBD [1]; read-out: SPR Kd): 1000 nM and 983 nM
- % Inhibition, normalized TR-FRET dose response (KLHDC2^SBD [2]; Log Concentration 2.39794): 13.1742% and 22.1732% and 17.7572%
- % Inhibition, normalized TR-FRET dose response (KLHDC2^SBD [2]; Log Concentration 2.64098): 24.253% and 29.1375% and 24.8323%
- % Inhibition, normalized TR-FRET dose response (KLHDC2^SBD [2]; Log Concentration 3.273): 57.5653% and 59.1955% and 57.0453%
- % Inhibition, normalized TR-FRET dose response (KLHDC2^SBD [2]; Log Concentration 3.87506): 85.4899% and 86.6902% and 84.0459%
- % Inhibition, normalized TR-FRET dose response (KLHDC2^SBD [2]; Log Concentration 4.39794): 85.0979% and 85.1063% and 81.8885%
- IC50 (KLHDC2^SBD [2]; inhibition of KLHDC2^SBD binding to a di-Gly degron peptide, read-out: TR-FRET IC50): 1100 nM
